Measured values as given in article PMC12006171, “Marsupial cathelicidins: characterization, antimicrobial activity and evolution in this unique mammalian lineage” (Frontiers in Immunology, 2025).
Values after ≈ are worked out from the molar mass of the structure shown. Read-outs that look alike come from different tables or passages of the source. Where a SMILES comes first, the peptide text is derived from it.

Key:
Experiment in all cases: microbe, parasite or virus in culture
Format in all cases: cell-based
[1] = test system: Streptococcus agalactiae ATCC 12386; conditions: ATCC 12386; read-out: MIC S. agalactiae ATCC
Method: (§1) Antimicrobial testing of 78 cathelicidin MPs was performed in two phases as outlined in Figure 1 . In phase I, 40 peptides (27 extant and 13 ancestral) were selected for testing based on rank (outlined above) and similarity to published marsupial cathelicidins with known antimicrobial activity ([33], [41]–[43]). These peptides were tested against nine bacteria (Staphylococcus aureus ATCC 29213 and clinical isolate, Escherichia coli ATCC 25922 and clinical isolate, Pseudomonas aeruginosa ATCC 27853 and clinical isolate, Streptococcus agalactiae ATCC 12386 and clinical isolate, Streptococcus pneumoniae ATCC 49619) and three fungi (Candida krusei ATCC 6258, Candida parapsilosis ATCC 22019, and Candida albicans clinical isolate). Details regarding these strains are available in Supplementary Table 4 . The antimicrobial activity of cathelicidins was determined as the minimum inhibitory concentration (MIC), which was the lowest concentration of cathelicidin that prevented visible bacterial or fungal growth, relative to the negative control. […] Minimum bactericidal concentration (MBC) and/or minimum fungicidal concentration (MFC) was conducted to determine microbicidal versus static action. Activity against S. aureus ATCC, E. coli ATCC, and Pseudomonas aeruginosa ATCC 27853 was examined in the presence of divalent cations to determine the impact of inhibitors.
(§2) Antimicrobial activity was determined using a broth microdilution susceptibility assay in 96 well polypropylene plates according to Clinical Laboratory Standards Institute guidelines M07-A and M26A as described previously ([33], [42], [43]). The bacterial and fungal isolates from humans and animals used in this study are outlined in Supplementary Table 4 . Only yeasts were included in the panel of fungi as they have been used in the susceptibility testing of eutherian ([3], [81]–[83]) and other marsupial cathelicidins previously ([33], [42], [43]). Cathelicidin mature peptides were solubilized in DMSO and serially diluted in duplicate from 128-0.25μg/mL in a final volume of 100µL. For bacteria, cathelicidins were diluted in Mueller Hinton Broth (MHB) with or without 10% lysed horse blood, and with (MH II B) or without (MHB) calcium and magnesium cations. For fungi, cathelicidins were diluted in Roswell Park Memorial Institute medium (RPMI)-1640 MOPS. Ampicillin or tetracycline were included as a positive control for Gram-positive and -negative bacteria respectively, while amphotericin B was used for fungi. A media-only negative control and growth control (no cathelicidin) were also included on each plate. Bacteria were sub-cultured on Muller Hinton agar (MHA) or sheep blood agar (BA), and fungi on Sabouraud dextrose agar (SAB), 20–24 hours prior to the test. Colonies were suspended in saline, the concentration adjusted to a 0.5 McFarland standard, and then diluted in media to a concentration of 1.0 x 10^6 cells/mL. Then, 100μL was added to each well of the cathelicidin dilution plate, giving a final inoculum density of 5 x 10^5 CFU/mL and cathelicidin concentration of 64-0.125μg/mL. Colony counts were performed on MHA/BA/SAB to confirm inoculum density. All plates were incubated at 35°C for 20–24 hours, depending on the strain.
(§3) Colonies were counted and compared to the colony count of the starting inoculum.

[2] = test system: Streptococcus agalactiae Clinical isolate - animal; conditions: clinical isolate - animal; read-out: MIC S. agalactiae
Method: as §1, §2, §3

[3] = test system: Streptococcus pneumoniae ATCC 49619; conditions: ATCC 49619; read-out: MIC S. pneumoniae ATCC
Method: as §1, §2, §3

[4] = test system: Staphylococcus aureus ATCC 29213; conditions: ATCC 29213; read-out: MIC S. aureus ATCC
Method in brief: (§4)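 Each isolate was exposed to twofold peptide dilutions (final 64-0.125μg/mL) in Mueller Hinton broth, optionally supplemented with calcium and magnesium or 10% lysed horse blood. The MIC was taken as the lowest concentration lacking visible growth after 20–24 hours at 35°C.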

[5] = test system: Pseudomonas aeruginosa clinical isolate - animal; conditions: clinical isolate - animal; read-out: MIC P. aeruginosa
Method in brief: as §4

[6] = test system: Staphylococcus aureus clinical isolate - animal; conditions: clinical isolate - animal; read-out: MIC S. aureus
Method in brief: as §4

[7] = test system: Escherichia coli clinical isolate - animal; conditions: clinical isolate - animal
Method in brief: as §4

[8] = test system: Pseudomonas aeruginosa ATCC 27853; conditions: ATCC 27853; read-out: MIC P. aeruginosa ATCC
Method in brief: as §4

[9] = test system: Escherichia coli ATCC 25922; conditions: ATCC 25922
Method in brief: as §4

MIC [1] [µM]	MIC [2] [µM]	MIC [3] [µM]	MIC [4] [µM]	MIC [5] [µM]	MIC [6] [µM]	MIC [7] [µM]	MIC [8] [µM]	MIC ([9]; read-out: MIC E. coli ATCC) [µM]	MIC ([9]; read-out: MIC in the presence of cations E. coli ATCC) [µM]	MIC E. coli [7]	MIC in the presence of cations E. coli [7]	MIC E. coli ATCC [9]	MIC in the presence of cations E. coli ATCC [9]	Compound	MBC E. coli ATCC [9]	MBC E. coli [7]
>22.6	>22.6	>22.6	>22.6	>22.6	>22.6	>22.6	>22.6	11.3 (≈ 31.9 µg/mL)	22.6	–	–	–	–	CC[C@H](C)[C@H](NC(=O)CNC(=O)[C@H](CCC(=O)O)NC(=O)[C@H](CCC(N)=O)NC(=O)[C@@H](NC(=O)[C@H](CCCCN)NC(=O)[C@H](CC(N)=O)NC(=O)[C@H](CCCCN)NC(=O)[C@@H](NC(=O)[C@H](CC(C)C)NC(=O)[C@H](CC(N)=O)NC(=O)CNC(=O)[C@H](CC(C)C)NC(=O)[C@H](CCCCN)NC(=O)[C@H](CCCNC(=N)N)NC(=O)[C@H](CC(C)C)NC(=O)CN)[C@@H](C)CC)[C@@H](C)CC)C(=O)N[C@@H](CCC(=O)O)C(=O)N[C@@H](Cc1c[nH]cn1)C(=O)N[C@@H](Cc1ccccc1)C(=O)N[C@@H](Cc1ccccc1)C(=O)NCC(=O)N[C@@H](CCCNC(=N)N)C(=O)N[C@@H](CCCNC(=N)N)C(=O)O [SmcrCath6] (H-GLRKLGNLIKNKIQEGIEHFFGRR-OH)	22.6 µM (≈ 63.8 µg/mL)	–
>21.8	>21.8	>21.8	>21.8	>21.8	>21.8	–	>21.8	–	–	10.9 (10.9)^10.9 µM	10.9 (10.9)^10.9 µM	10.9 (10.9)^10.9 µM	10.9 (10.9)^10.9 µM	CC[C@H](C)[C@H](NC(=O)[C@H](CC(=O)O)NC(=O)[C@H](CCCNC(=N)N)NC(=O)[C@H](CC(C)C)NC(=O)[C@H](CCCCN)NC(=O)[C@H](CCCNC(=N)N)NC(=O)[C@H](Cc1ccc(O)cc1)NC(=O)[C@H](CCCCN)NC(=O)[C@H](CCC(=O)O)NC(=O)[C@H](CC(C)C)NC(=O)[C@H](CC(C)C)NC(=O)[C@@H](NC(=O)[C@H](CCCNC(=N)N)NC(=O)[C@H](Cc1ccc(O)cc1)NC(=O)[C@H](CCCCN)NC(=O)[C@H](CCC(N)=O)NC(=O)[C@H](Cc1ccc(O)cc1)NC(=O)[C@@H](NC(=O)[C@H](CC(C)C)NC(=O)[C@@H](N)CC(N)=O)[C@@H](C)CC)[C@@H](C)CC)C(=O)N[C@@H](Cc1ccccc1)C(=O)N[C@@H](CO)C(=O)NCC(=O)O [MAP6] (H-NLIYQKYRILLEKYRKLRDIFSG-OH)	10.9 (10.9)^10.9 µM	10.9 (10.9)^10.9 µM
